We go through seven molecules from ChEMBL document CHEMBL1155373, “Triterpene compounds isolated from Acer mandshuricum and their anti-inflammatory activity” (Bioorg Med Chem Lett, 2010).

Each structure is given as a SMILES string.

One test relates to HT-29. The test can be described thus: Growth inhibition of human HT-29 cells by MTT assay. It is filed as functional. On the technique in general: Tetrazolium dyes change colour on reduction, which living cells bring about.
A further test has as its system SK-OV-3. The test can be described thus: Growth inhibition of human SKOV3 cells by MTT assay. It is filed as functional.
For a further test, the system named is A549. The test is described as follows: Growth inhibition of human A549 cells by MTT assay. It is filed as functional.
A further test deals with RAW264.7. The test can be described thus: Antiinflammatory activity in mouse RAW264.7 cells assessed as inhibition of LPS-stimulated TNFalpha production at 100 nM pretreated 1 hr before LPS challenge measured after 24 hrs by sandwich ELISA relative to control. It is filed as functional. (An ELISA detects its analyte on a solid surface through an enzyme-linked reagent.)
The test system of a further test is HL-60. The test is described as follows: Growth inhibition of human HL60 cells by MTT assay. It is filed as functional.
The subject of another test is A2780. The test can be described thus: Cytotoxicity against human A2780 cells. It is filed as functional, cell-based.

What is called GI50 is the concentration giving 50% growth inhibition. Broadly, the inhibition is the relative decrease from the control value, in per cent. For `CC(=O)O[C@H]1CC[C@@]2(C)[C@@]3(OC[C@@H](OO3)[C@]3(C)[C@@]2(C)CC[C@@]2(C)[C@@H]4CC(C)(C)CC[C@]4(C)CC[C@]32C)C1(C)C` [ACERANOL ACETATE], the GI50 with HT-29 was found to be 14.6 µM; in the test on SK-OV-3, 12.8 µM; in the test with A549, 11.4 µM; in the test with HL-60, 13.7 µM. In the test on RAW264.7, the inhibition at 0.1 µM turned out to be 21%.

With `C[C@H]1C(=O)CC[C@@H]2[C@]1(C)CC[C@H]1[C@@]2(C)CC[C@@]2(C)[C@@H]3CC(C)(C)CC[C@]3(C)CC[C@]12C` [FRIEDELINE], the GI50 in the test with HT-29 is 13.5 µM; in the test with SK-OV-3, 12.7 µM; with A549, 11.1 µM; with HL-60 it was 12.2 µM. Moreover, in the test with RAW264.7, the inhibition at 0.1 µM is 23.5%.

Regarding `CC(=O)O[C@H]1CC[C@@H]2C(=CC[C@H]3[C@@]2(C)CC[C@@]2(C)[C@@H]4CC(C)(C)CC[C@]4(C)CC[C@]32C)C1(C)C` [GLUTINOL ACETATE], the GI50 came out at 16.3 µM in the test with HT-29, 12.1 µM in the test on SK-OV-3, 17.9 µM in the test with A549 and 16.2 µM with HL-60. Besides, the inhibition at 0.1 µM in the test on RAW264.7 amounted to 25.4%.

With `CC1(C)CC[C@]2(C)CC[C@]3(C)[C@H]4CC=C5[C@@H](CC[C@H](O)C5(C)C)[C@]4(C)CC[C@@]3(C)[C@@H]2C1` [GLUTINOL], the GI50 in the test on HT-29 worked out at 14.1 µM; in the test with SK-OV-3, 12.6 µM; in the test on A549, 11.6 µM; in the test with HL-60, 16 µM. Also, the inhibition at 0.1 µM in the test on RAW264.7 was found to be 16.9%.

`O=C1c2c(O)ccc(O)c2C(=O)c2c(NCCNCCO)ccc(NCCNCCO)c21` [MITOXANTRONE]: the GI50 in the test on HT-29 stood at 8.9 µM; in the test with SK-OV-3, 11 µM; with A549, 8.3 µM; with HL-60 it was 7.8 µM.

For the molecule `CC[C@H](CC[C@@H](C)[C@H]1CC[C@H]2[C@@H]3CC=C4C[C@@H](O[C@@H]5O[C@H](CO)[C@@H](O)[C@H](O)[C@H]5O)CC[C@]4(C)[C@H]3CC[C@]12C)C(C)C` [SITOGLUSIDE], the GI50 with HT-29 turned out to be 46.8 µM; in the test with SK-OV-3, 29.8 µM; with A549 it was 35.5 µM; in the test with HL-60 it was 50.8 µM. In addition, in the test with RAW264.7, the inhibition at 0.1 µM came out at 29.3%.

A word on the IC50: it is the concentration that inhibits the measured activity by half. Higher therefore signals a need for much substance. Turning to `CC(=O)O[C@H]1CC[C@]2(C)[C@H]3CC=C4[C@@H]5CC(C)(C)CC[C@]5(C)CC[C@@]4(C)[C@]3(C)CC[C@H]2C1(C)C` [beta-AMYRIN ACETATE], the GI50 with HT-29 came to 12.5 µM; in the test on SK-OV-3, 14.6 µM; in the test with A549, 11.4 µM; in the test on HL-60 it was 14.6 µM. Besides, the inhibition at 0.1 µM with RAW264.7 was 38.4%. The IC50 in the test with A2780 came out at 12.5 µg/mL.
